Test results taken from patent US20120328605A1, “COMPOSITIONS AND USES” (priority 2010, published 2012).
Where no end group is shown, it is not given here. The star is where a group is joined. Pam3Cys = N-terminal lipid (lipidation), CCCCCCCCCCCCCCCC(=O)N[C@@H](CSCC(COC(=O)CCCCCCCCCCCCCCC)OC(=O)CCCCCCCCCCCCCCC)C(=O)*

Columns and labels:
[1] = test system: Lineage-CD11b+ monocytes; experiment: Monocyte analysis and counting after adjuvant injection in mice; assay type: in vivo, C57BL/6 mice
Protocol: (§1) 24-Hours after injection of the TLR adjuvants, peripheral blood was drawn from C57BL/6 mice via cardiac puncture with lithium-heparin as anticoagulant. Red blood cell lysis was performed twice on pooled blood with Ammonium Chloride-based Buffer (Sigma, Steinheim, Germany) and cells were counted with the EasyCount™ System (Immunicon). […] Cells were finally washed three times and fixed for 15 min. with a 2% paraformaldehyde solution in PBS. Fluorescence minus one (FMO) controls were always included in the assays for fluorescent compensation setting. Samples were acquired on a flow cytometer (BD FACSCanto II) and data analyzed with the FACSDiva software (BD Biosciences). Monocytes were identified by their Side/Forward scatter properties and gated as CD3-/CD45R/B220-/Ly-6G-/NK1.1-(Lineage-)/CD11b+ cells. CD11b+ monocyte frequency was reported as a percentage of the total cells excluding debris.
as §1, with “24 hours” for “24-Hours”, “each immunomodulator,” for “the TLR adjuvants,”, “min” for “min.”, “monocytes” for “monocyte”

[2] = test system: APPSwe/PS1 mice; experiment: T-water maze; assay type: in vivo; conditions: Example 21: twelve weekly injections; CRX527, CRX601 20 μg i.p., 3D MPL 50 μg i.p., AS01B 1/10th human dose i.m.; FIG. 24
Protocol: Five groups of APPSwe/PS1 mice received one a week for a period of 12 weeks the following treatment: • Gr1: APPSwe/PS1+NaCl 0.9% n(=20), i.p. injections • Gr4: APPSwe/PS1+CRX527 (20 μg/mouse, 130 μl, n=10), i.p. injections • Gr5: […] (50 μg/mouse, 130 μl, n=10), i.p. injections • Gr8 APPSwe/PS1+AS15 ( 1/10th of human dose, 50 μl, n=10), i.m. injections • Gr9: APPSwe/PS1+AS01B ( 1/10th of human dose, 50 μl, n=10), i.m. injections
Mice were tested during the “light on” phase of the day. Behavioral experimenter was blinded to the genetic and treatment status of animals. To assess hippocampal-dependent spatial learning and memory, mice were trained in the T-water maze task. In this paradigm, we evaluate the mouse's ability to remember the spatial location of submerged platform. The T-maze apparatus (length of stem, 64 cm; length of arms, 30 cm; width, 12 cm; height of walls, 16 cm) was made of clear fiberglass and filled with water (23±1° C.) at a height of 12 cm. A platform (11×11 cm) was placed at the end of the target arm and was submerged 1 cm below the surface. The acquisition phase allows to evaluate animals for left-right spatial learning. During the first two trials, platforms were placed on each arms of the maze to test the spontaneous turning preference of the mouse. After these two trials, the least chosen arm was reinforced by the escape platform. The mice were placed in the stem of the T-maze and choose to swim either left or right until they found the submerged platform and escape to it, to a maximum of 60 s. After reaching the platform, the mice remained on it for 20 s and then were immediately placed back in the maze. […] Repeated trials were presented on the same day up to a maximum of 48 trials. A rest period of at least 10-15 min intervened between each block of 10 trials. A mouse was considered to have learned the task when it made no errors in a block of five consecutive trials. […] The number of trials to reach the criterion (five of five correct choices made on consecutive trials) was measured as well as the latency to find the escape platform.

[3] = test system: BV2 microglia cells; experiment: In vitro phagocytosis of Aβ1-42 in BV2 cells, Western blot; assay type: cell-based, mouse; conditions: 5 μg/mL cytochalasin D; FIG. 16
Protocol: For total Aβ detection, 10-30 μg of cell extracts were separated on a precast 10-20% SDS polyacrylamide Tris-Tricine gel (Bio-Rad, Canada). Separated proteins were then transferred onto polyvinylidene fluoride (PVDF) membranes (PerkinElmer, Canada). Membrane were incubated in DPBS (Gibco, USA) at 90° C. for 10 min. Membrane were then incubated for 1 hour in blocking solution, which consist in TBS-T (50 mM Tris-HCl pH 8,0; 150 mM NaCl; 0.05% Tween 20) supplemented with 1% BSA (Sigma, Canada) and 5% non-fat dry milk, and probed for 16 hours at 4° C. with a mouse anti-amyloid beta protein monoclonal antibody clone 6E10 (Covance, USA) diluted to 1:1000 in TBS-T supplemented with 5% BSA and 0.02% sodium azide. Membranes were washed once for 15 min and three times for 5 min in TBS-T at room temperature. […] Films were digitalized using a HP Scanjet 4370 (HP) and signal intensity was measured using ImageJ (version 1.44p, NIH).
Aβ specific antibodies stimulate the uptake of soluble Aβ1-42 toxic peptides in an actin polymerization-dependent mechanism. […] Cells were incubated for the indicated period of time, resuspended by trypsinization, collected, solubilised in lysis buffer and further analyzed by immunoblotting. […]

[4] = test system: human microglial cell line CHME; experiment: Phagocytosis of beta-amyloid 1-42 peptide by CHME cells; assay type: cell-based; conditions: Pam3Cys lip peptide 5 ug per ml, FIG. 18
Protocol: Phagocytosis of beta-amyloid 1-42 peptide by the human microglial cell line CHME was observed after the addition of TLR2 agonist containing adjuvants Protollin and Pam3CysLip peptide. […] The synthetic peptide sequence of the Pam3Cys Lip peptide is described herein: Pam3Cys-SQ EPAAPAAEAT PAAEAP. Protollin was used at concentration 1 ug per ml based on the LPS content from Shigella flexneri. Pam3Cys lip peptide was used at concentration of 5 ug per ml of the pure tri-palmitoylated peptide.
Additionally, cells were imaged using 42 HiLyte 488 Fluo (Anaspec, Inc.) at 2 ug per ml in DMEM complete media (Invitrogen). Lysotracker red staining was performed and slides were mounted and co-stained with DAPI to show the nucleus (blue). […] Lysotracker red reagent was purchased from Invitrogen and used as manufacturer recommendations.

[5] = test system: Aβ42; experiment: Aβ42 specific immunogenicity in the amyloid deposition mouse model; assay type: in vivo, TASTPM mice; conditions: 12 injections of 10 ug, intramuscular route; FIG. 29
Protocol: Whole blood is collected from mice and centrifuged on a vacutainer blood collection tube containing gel for serum separation. Serum samples are stored at −80° C. Streptavidin-coated plates (Greiner Bio-One, Germany) are first coated with beta-amyloid (1-42)-Lys(Biotin)-NH2 peptide (Anaspec, Inc.) at 0.5 μg/mL, using 50 mM sodium carbonate buffer, overnight at 4° C. Plates are then washed using a 4 times using PBS/0.05% Tween 20. Super Block (ScyTek laboratories) is added to the plates and incubated at 37° C. for at least one hour. Serum samples and standard (anti Aβ42 antibody (6E10 antibody, Covance, Inc.) are serially diluted in the plates and incubated at 37° C. for 2 hours. After a wash step, diluted peroxidase AffiniPure goat anti-mouse IgG, Fcγ fragment specific (Jackson ImmunoResearch Laboratories Inc.) is added for 1 hour at 37° C. A last wash is performed before adding TMB substrate reagent (BD OptEIA™, BD Biosciences) for 30 min at RT. Immediately, plates are stopped using 2N sulfuric acid, and then read at 450 nm using SpectraMax microplate reader (Molecular Devices, Inc.).

[6] = test system: TASTPM mice; experiment: T-water maze test in TASTPM; assay type: in vivo; conditions: 12 weekly i.m. injections; FIG. 30
Protocol: To determine whether a TLR2 agonist will improve the cognitive impairment in TASTPM mice, the Pam3CysLip adjuvant fused to the Aβ1-6 peptide was injected 12 times at weekly basis using the intramuscular route and the memory was assessed using the T-water maze test. […] TASTPM mice have received one a week for a period of 12 weeks the following treatment: PBS or mice have received once a week for a period of 12 weeks the following treatment: PBS or of Pam3CysLip Aβ1-6 peptide.

[7] = test system: PDAPP mice; conditions: immunization of young PDAPP mice; cited from earlier work

## CCCCCCCCCCC[C@H](CC(=O)N[C@H]1[C@H](OC[C@H](NC(=O)C[C@@H](CCCCCCCCCCC)OC(=O)CCCCCCCCC)C(=O)O)O[C@H](CO)[C@@H](OP(=O)(O)O)[C@@H]1OC(=O)C[C@@H](CCCCCCCCCCC)OC(=O)CCCCCCCCC)OC(=O)CCCCCCCCC [CRX527]
[1]; i.m. or i.p. routes, doses of b403, FIG. 9
  circulating monocytes numbers following injection: Upregulation of circulating monocytes numbers
[2]
  behaviour as assessed by T water maze testing: significant improvements in behaviour

## C=C1[C@@H](C)[C@H]2[C@H](Cc3ccccc3)NC(=O)[C@]23[C@H](OC(C)=O)/C=C/[C@@](C)(O)C(=O)[C@@H](C)C/C=C/[C@H]3[C@@H]1O [cytochalasin D]
[3]
  effect on 2E7-increased cellular uptake of Aβ1-42: inhibited

## Pam3Cys-SQ EPAAPAAEAT PAAEAP (Pam3Cys-SQEPAAPAAEATPAAEAP) [Pam3CysLip peptide, TLR2 agonist, tri-palmitoylated peptide from Neisseria meningitidis strain 8047]
[4]; pre-incubation 18 hrs
  phagocytosis: 86 % of cells
[4]; Protollin 1 ug per ml (LPS content), 18 hrs, vs PBS
  phagocytosis of Aβ1-42 by CHME: higher amyloid phagocytic activity

## Pam3Cys-SQ EPAAPAAEAT PAAEAPDAEFRH (Pam3Cys-SQEPAAPAAEATPAAEAPDAEFRH) [Pam3CysLip Aβ1-6 peptide]
[5]
  anti Aβ42 specific immunogenicity: High and specific anti Aβ42 specific immunogenicity
[6]
  right-left discrimination tests (T-water maze) vs PBS injected group: trend of improvement

## QS21 [reference compound]
[1]; single i.m. injection, 24 hrs, FIG. 19B
  activated Ly6C+ monocytes: 75%
[1]; single i.m. injection, after 24 hrs, QS21 5 μg, FIG. 19A
  number of monocytes, % of total peripheral white blood cells: 9.1%

## synthetic human Aβ1-42: synthetic human Aβ1-42 used to immunize PDAPP mice
[7]
  AD-like neuropathologies: reduce the extent and progression
